Measured values: US20080108665A1, “Use of N-substituted sulfoximines for control of invertebrate pests” (priority 2006, published 2008)

Legend:
Format in all cases: in vivo
[1] = test system: Eastern Subterranean Termite (Reticulitermes flavipes); assay: Eastern subterranean termite filter paper assay
Experimental: Activity of Compound (2) was evaluated for its activity on Eastern subterranean termite. Technical material of the test compound was formulated in acetone on a wt/wt basis to deliver 1000, 500, 200, 50, 12.5, 3.12 and 0.78 ppm to 42.5 mm Whatman No. 1 filter papers per 200 ul of pipetted solution. Each test concentration was applied to six filter papers (6 reps). Six acetone-only control units and six DI water-only control units were also prepared. The filter papers were dried overnight in the fume hood before they were placed into 60×15 mm Fisher Brand plastic Petri dishes. A volume of 200 ul DI water was pipetted onto each Filter paper at the time of test set-up, just prior to infesting with termites. Ten worker termites were added to each Petri dish and covered. The infested Petri dishes were put in the laboratory Conviron at 28° C. and 60% RH. Termite mortality was recorded at 1, 2, 4, 7, and 10 days after infestation (DAI). Throughout the duration of the test, an average of 150 ul of DI water was added daily to the filter papers to retain moisture.

[2] = test system: Cotton Aphid (Aphis gossypii); assay: Cotton aphid seed coating assay on squash; settings: for % Control, seed coating systemic: 1st leaf infested 13 days after planting
Experimental: Selected compounds of the invention were tested in assays designed to evaluate its systemic activity for control of cotton aphid through seed-coating prior to planting. The crop used in these assays was a hybrid squash (var. Pic-N-Pic). Test compound was formulated in a 10% SC formulation. Ten squash seeds were used for each treatment. Seeds were placed on waxed paper and a pipette was used to apply the original or diluted formulations to each seed. The air-dried, treated seeds were individually planted into 3 inch pots containing metro mix. The pots were placed on a California cart and moved into the greenhouse for sub watering only. At the specified number of days after planting, the plants were infested with approximately 40 wingless aphids. The infested plants were kept in an environmental holding room (23° C., 40% RH, 16 hr light: 8 hr dark) for three days before the number of live aphids was counted under a microscope. Calculations for % Control were based on a corrected basis compared to the populations on the reference plants germinated from seeds treated with the formulation blank.
Corrected % Control=100*(X−Y)/X • where X=No. of live aphids on reference plants • Y=No. of live aphids on treated plants Assay 1. Compounds (1) and (2) were tested at 3 mg/seed. The original 10% SC formulation was used. One half (15 ul) of the sample was spread onto one side of a seed. Once dried (approximately 1 hr), the seed was flipped over and the 2nd half of sample was spread over the other side. Fourteen and 25 days after planting, aphid infestations were conducted on the 1st and 2nd true leaves, respectively.
Assay 2. Compound (2) was tested at 0.1 and 1 mg/seed. For the 1 mg/seed treatment, the original 10% formulation was used. For the 0.1 mg/seed treatment, the 10% formulation were diluted 10× with DI water before application. One half (5 ul) of the sample was spread onto one side of a seed. Once dried (approximately 1 hr), the seed was flipped over and the 2nd half of sample was spread over the other side. Thirteen days after planting, the 1st leaf was infested.

[3] = test system: Green Leafhopper (Nephotettix sp.); assay: Green leafhopper root uptake assay on rice; settings: 6-day observation
Experimental: (§1) These assays were designed to evaluate the possibility of using compounds of the invention for applications such as nursing trays, transplanting water and/or irrigation. Root-uptake systemic assays were performed on both brown planthopper and green leafhopper. Four-week-old rice seedlings were submerged in 3-cm depth of water in the bottom portion (high 5 cm, diameter 3 cm) of a 2-part glass cylinder (high 18 cm, diameter 3 cm). A metal screen was used to hold the seedlings within the bottom portion. Scotch tape was used to bind the two portions of the cylinder after setting up the seedlings. A metal cap was used to cover the cylinder. There were 4 cylinders for each treatment. The test compound was dissolved in acetone to make a 10,000 ppm stock solution which was incorporated at final test concentrations of 5, 2, 1, 0.5, 0.25 ppm in the water in which rice seedlings were submerged. Five laboratory-reared 3rd instar nymphs of brown planthopper or green leafhopper were introduced into each cylinder 3 hr after insecticide application. The treated test units were kept in a growth chamber with conditions set as followings: Temperature 28±0.5° C.; Relative humidity 70±0.5%; Photoperiod 14 hr light: […].

[4] = test system: Brown Planthopper (Nilaparvata lugens); assay: Brown planthopper root uptake assay on rice; settings: 6-day observation
Experimental: as §1

[5] = test system: Cat Flea (Ctenocephalides felis); assay: Cat flea filter wool assay; settings: 48-hour exposure, mean
Experimental: Compound (2) was evaluated in a dose response series to establish the range of activity of the test compound. Technical material was dissolved in acetone and diluted with the same solvent to obtain the test concentrations. Bioassays were conducted by treating polyester aquarium filter wool with 1.0 ml of the test solution, thoroughly saturating the substrate and allowing it to dry for at least 1 hour. The dry filter wool was then placed into 10 cm plastic Petri dishes and covered with the lid. Each treatment was replicated 5 times. Approximately 15 unfed cat flea adults were placed into each replicate of each dosage being evaluated. Mortality was assessed at 2, 8, 24 and 48 hours after introduction of the fleas into the test system. The mean percent mortality for each dosage group and time interval was determined and results from the 48-hour observation are presented in Table 8.

[6] = 3 mg/seed, 10% SC formulation, counted 3 days after infestation

In the case of `CC(c1ccc(Cl)nc1)S(C)(=O)=NC#N` (stereo not drawn) [Compound 2, [1-(6-chloropyridin-3-yl)ethyl](methyl)oxido-λ^4-sulfanylidenecyanamide], the mortality at 0.78 ppm ([1]; 1 DAI) is reported as 0%, the mortality at 0.78 ppm ([1]; 2 DAI) is reported as 2% and the mortality at 0.78 ppm ([1]; 4 DAI) is reported as 2%. The mortality at 0.78 ppm ([1]; 7 DAI) was 7%, the mortality at 0.78 ppm ([1]; 10 DAI) was 10% and the mortality at 3.13 ppm ([1]; 1 DAI) was 0%. For the same molecule, the mortality at 3.13 ppm ([1]; 2 DAI) was 3%, the mortality at 3.13 ppm ([1]; 4 DAI) was 43% and the mortality at 3.13 ppm ([1]; 7 DAI) was 60%. For the same molecule, the mortality at 3.13 ppm ([1]; 10 DAI) was 60%, the mortality at 12.5 ppm ([1]; 1 DAI) was 15% and the mortality at 12.5 ppm ([1]; 2 DAI) was 32%. For the same molecule, the mortality at 12.5 ppm ([1]; 4 DAI) was 60%, the mortality at 12.5 ppm ([1]; 7 DAI) was 63% and the mortality at 12.5 ppm ([1]; 10 DAI) was 63%. For the same molecule, the mortality at 50 ppm ([1]; 1 DAI) was 15%, the mortality at 50 ppm ([1]; 2 DAI) was 27% and the mortality at 50 ppm ([1]; 4 DAI) was 67%. It also gave a mortality at 50 ppm ([1]; 7 DAI) of 92%, a mortality at 50 ppm ([1]; 10 DAI) of 93% and a mortality at 200 ppm ([1]; 1 DAI) of 37%. The mortality at 200 ppm ([1]; 2 DAI) was 58%, the mortality at 200 ppm ([1]; 4 DAI) was 87% and the mortality at 200 ppm ([1]; 7 DAI) was 97%. For the same molecule, the mortality at 200 ppm ([1]; 10 DAI) was 100%, the mortality at 500 ppm ([1]; 1 DAI) was 38% and the mortality at 500 ppm ([1]; 2 DAI) was 60%. The mortality at 500 ppm ([1]; 4 DAI) was 93%, the mortality at 500 ppm ([1]; 7 DAI) was 100% and the mortality at 500 ppm ([1]; 10 DAI) was 100%. The mortality at 1000 ppm ([1]; 1 DAI) was 47%, the mortality at 1000 ppm ([1]; 2 DAI) was 68% and the mortality at 1000 ppm ([1]; 4 DAI) was 92%. For the same molecule, the mortality at 1000 ppm ([1]; 7 DAI) was 100%, the mortality at 1000 ppm ([1]; 10 DAI) was 100% and the “% Control, seed coating systemic” value ([2]; 0.1 mg/seed) was 36.5%. The “% Control, seed coating systemic” value ([2]; 1 mg/seed) was 99.8%, the “% Control, seed coating systemic 1st leaf, 14 days after planting” value [2, 6] was 100% and the “% Control, seed coating systemic 2nd leaf, 25 days after planting” value [2, 6] was 99.8%. For the same molecule, the “% Control, root uptake systemic Green leafhopper” value ([3]; 0.25 ppm in water) was 45%, the “% Control, root uptake systemic Green leafhopper” value ([3]; 0.50 ppm in water) was 65% and the “% Control, root uptake systemic Green leafhopper” value ([3]; 1.00 ppm in water) was 100%. For the same molecule, the “% Control, root uptake systemic Green leafhopper” value ([3]; 2.00 ppm in water) was 100%, the “% Control, root uptake systemic Green leafhopper” value ([3]; 5.00 ppm in water) was 100% and the “% Control, root uptake systemic Brown planthopper” value ([4]; 0.25 ppm in water) was 55%. The “% Control, root uptake systemic Brown planthopper” value ([4]; 0.50 ppm in water) was 80%, the “% Control, root uptake systemic Brown planthopper” value ([4]; 1.00 ppm in water) was 100% and the “% Control, root uptake systemic Brown planthopper” value ([4]; 2.00 ppm in water) was 100%. For the same molecule, the “% Control, root uptake systemic Brown planthopper” value ([4]; 5.00 ppm in water) was 100%, the “% Flea mortality” value ([5]; 5,000.0 ppm) was 100% and the mortality at 0.5 ppm ([5]; Ctenocephalides felis, 0.5 ppm) was 52.4%. For the same molecule, the mortality at 5 ppm ([5]; Ctenocephalides felis, 5.0 ppm) was 74.4%, the mortality at 50 ppm ([5]; Ctenocephalides felis, 50.0 ppm) was 76.6% and the mortality at 500 ppm ([5]; Ctenocephalides felis, 500.0 ppm) was 83.8%.
